According to patent US4703057A, “Beta-blocking thiochroman derivatives, compositions and method of use therefor” (ADIR Et Compagnie, priority 1985, dated 1987):
Values joined by “and” are separate entries in the source; they are usually repeats but may differ in a detail not shown here. Identical values can stand only once. Like-named read-outs stand apart in the source and are kept apart here.

Molecular target: beta1 (right auricle of rats, stimulated by isoprenaline) (Rattus norvegicus, UniProt P18090)
Sequence (P18090 whole entry): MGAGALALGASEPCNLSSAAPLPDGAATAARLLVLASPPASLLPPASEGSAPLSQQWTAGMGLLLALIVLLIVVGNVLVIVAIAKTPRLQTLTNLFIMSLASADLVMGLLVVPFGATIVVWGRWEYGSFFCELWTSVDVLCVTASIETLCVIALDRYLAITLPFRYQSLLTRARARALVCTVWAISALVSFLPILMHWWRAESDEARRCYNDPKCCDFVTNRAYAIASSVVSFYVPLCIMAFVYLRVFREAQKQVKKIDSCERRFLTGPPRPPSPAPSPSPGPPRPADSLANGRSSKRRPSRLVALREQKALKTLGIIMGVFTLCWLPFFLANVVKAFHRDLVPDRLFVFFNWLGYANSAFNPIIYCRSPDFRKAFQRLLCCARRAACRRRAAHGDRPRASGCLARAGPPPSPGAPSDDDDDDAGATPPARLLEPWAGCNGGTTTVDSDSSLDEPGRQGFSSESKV
Conditions: for log (x - 1): Van Rossum's table; for Kb: agonist isoprenaline; for type of antagonism towards isoprenaline: simple displacement of curves to the right
[1] = antagonist concentration 10^-8 M
[2] = pA2 (overall), n = 11, all antagonist concentrations
[3] = pA2, single preparation, antagonist concentration 10^-8 M
[4] = antagonist concentration 3 × 10^-8 M
[5] = antagonist concentration 3 × 10^-9 M

Compound | x (displacement of the curve) [1] | log (x - 1) [1] | Kb [2] [nM] | Kb [3] | beta1-adrenolytic activity (pharmacological tests in vitro, in words) | beta1-adrenolytic / beta1-antagonistic activity relative to tertatolol (relative to tertatolol) | type of antagonism towards isoprenaline | x (displacement of the curve) [4] | log (x - 1) [4] | x (displacement of the curve) [5] | log (x - 1) [5] | x (displacement of the curve) (antagonist concentration 10^-9 M) | Kb (pA2, single preparation, antagonist concentration 3 × 10^-8 M) | Kb (pA2, single preparation, antagonist concentration 3 × 10^-9 M) | times more powerful than propanolol (relative to propanolol) [times]
CC(C)(C)NCC(O)COc1cccc2c1SCCC2O (centres unmarked) [Compound of the formula I, 1-tert.-butylamino-3-(4-hydroxy-8-thiochromanyloxy)-2-propanol] | 37.5 mm and 38 mm and 31 mm | 1.22 and 1.24 and 0.99 | 0.575 | 0.603 nM and 0.575 nM and 1.02 nM | very high beta1 -adrenolytic activity | twice that of tertatolol | competitive type | – | – | – | – | – | – | – | –
CC(C)(C)NCC(O)COc1cccc2c1SCCC2 (centres unmarked) [Tertatolol, 1-tert.-butylamino-3-(8-thiochromanyloxy)-2-propanol] | 41 mm and 46 mm and 47 mm | 1.35 and 1.52 and 1.55 | 0.912 | 0.447 nM and 0.302 nM and 0.282 nM | – | – | competitive type | 35 mm and 32.5 mm | 1.13 and 1.05 | 25.5 mm and 27 mm and 19.5 mm | 0.78 and 0.84 and 0.54 | 6 mm and 7 mm and 3.5 mm | 2.24 nM and 2.69 nM | 0.501 nM and 0.437 nM and 0.871 nM | 6
